Measurements reported in ChEMBL document CHEMBL1148607, “A minimalist design approach to antimicrobial agents based on a thionin template” (J Med Chem, 2006).
Non-standard residues stand in square brackets, D forms with d. Residues, ends and D or L forms follow the SMILES beside them. GABA = NCCCC(=O)O

Legend:
Assay type in all cases: functional, organism-based
[1] = tested on: Clavibacter michiganensis; assay: Antibacterial activity against Clavibacter michiganensis
[2] = tested on: Sinorhizobium meliloti; assay: Antibacterial activity against Rhizobium meliloti
[3] = tested on: Xanthomonas campestris; assay: Antibacterial activity against Xanthomonas campestris
[4] = tested on: Botrytis cinerea; assay: Antifungal activity against Botrytis cinerea
[5] = tested on: Plectosphaerella cucumerina; assay: Antifungal activity against Plectosphaerella cucumerina

For `CC(C)C[C@H](NC(=O)[C@H](CCCN=C(N)N)NC(=O)CCCNC(=O)[C@@H](NC(=O)[C@H](CC(N)=O)NC(=O)[C@H](Cc1ccc(O)cc1)NC(=O)CCCNC(=O)[C@H](CC(N)=O)NC(=O)[C@H](CCCN=C(N)N)NC(=O)[C@H](C)NC(=O)[C@H](Cc1c[nH]c2ccccc12)NC(=O)[C@@H](N)[C@@H](C)O)C(C)C)C(=O)N1CCC[C@H]1C(=O)O` (H-TWARN[GABA]YNV[GABA]RLP-OH), the EC50 [1] was 3.27 µM, the EC50 [2] was greater than 50 µM and the EC50 [3] was greater than 50 µM. For the same molecule, the EC50 [4] was 1.6 µM and the EC50 [5] was 3.97 µM.

`CC[C@H](C)[C@H](NC(=O)[C@H](CCC(=O)O)NC(=O)[C@@H](N)CCCN=C(N)N)C(=O)NCCCC(=O)N[C@@H](C)C(=O)N[C@@H](CCCCN)C(=O)N[C@@H](CCCCN)C(=O)NCCCC(=O)N[C@@H](CCCN=C(N)N)C(=O)O` (H-REI[GABA]AKK[GABA]R-OH) showed an EC50 [1] of 5.13 µM, an EC50 [2] greater than 50 µM and an EC50 [3] greater than 50 µM. For the same molecule, the EC50 [4] was 4.1 µM and the EC50 [5] was 15.7 µM.

“H-THRTRPALAARGASNCYSTYRASNVALCYSARGLEPRARGGLIIECYSALALYSLYSCYS-OH (cysteines drawn unpaired)” showed an EC50 [1] of 0.03 µM, an EC50 [2] of 2.07 µM and an EC50 [3] of 1.03 µM. The EC50 [4] was 0.08 µM and the EC50 [5] was 0.16 µM.
